Where a name gives a salt, the structure may show the parent alone.
These compounds were tested against T1, Acetylcholinesterase (Rattus norvegicus, UniProt P37136) (assay: Acetylcholinesterase inhibiting activity using (acetyl-[3H])-acetylcholine, S1 fraction of rat cerebral cortex homogenate). Details: rat cerebral cortex homogenate S1 fraction; 30 minutes of incubation; read-out: Acetylcholinesterase inhibiting activity IC50.
T1 construct: the S1 fraction of a male Wistar rat cerebral cortex homogenate was used as a cholinesterase source; from tissue; host or cells: male Wistar rat cerebral cortex homogenate, S1 fraction
T1 sequence (P37136 32-614): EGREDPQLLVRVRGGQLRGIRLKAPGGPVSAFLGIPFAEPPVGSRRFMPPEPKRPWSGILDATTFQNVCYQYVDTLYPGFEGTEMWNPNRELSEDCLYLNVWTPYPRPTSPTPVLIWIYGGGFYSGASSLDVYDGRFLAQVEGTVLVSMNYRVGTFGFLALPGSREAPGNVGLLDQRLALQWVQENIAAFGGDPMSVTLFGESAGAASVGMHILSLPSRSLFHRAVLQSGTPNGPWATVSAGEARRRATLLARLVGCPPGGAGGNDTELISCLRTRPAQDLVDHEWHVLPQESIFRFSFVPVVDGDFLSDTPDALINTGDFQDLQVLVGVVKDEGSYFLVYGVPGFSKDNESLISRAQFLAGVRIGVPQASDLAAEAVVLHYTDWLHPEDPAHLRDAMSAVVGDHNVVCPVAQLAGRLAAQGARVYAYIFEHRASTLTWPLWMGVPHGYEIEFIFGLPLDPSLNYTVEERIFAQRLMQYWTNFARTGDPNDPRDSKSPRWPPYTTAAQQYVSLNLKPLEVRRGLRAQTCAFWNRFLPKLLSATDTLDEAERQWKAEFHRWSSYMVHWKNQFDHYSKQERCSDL
Assay type: biochemical, male Wistar rat
Protocol: The compounds according to the invention were examined for cholinesterase inhibiting activity using (acetyl-[^3 H])-acetylcholine. Thus, the S1 fraction of a male Wistar rat cerebral cortex homogenate was used as a cholinesterase source, and (acetyl-[^3 H])-acetylcholine (as substrate) and each test compound according to the invention were added and, after 30 minutes of incubation, the reaction was terminated. A toluene type scintillator was added, and the mixture was shaken, whereby the reaction product [^3 H]-acetic acid was transferred to the toluene layer. The cholinesterase activity was determined by counting said [^3 H]-acetic acid with a liquid scintillation counter.
The cholinesterase inhibiting activity of each test compound was expressed in terms of 50% inhibitory concentration (IC50).

Row | SMILES | IC50
1 | CN(CCCCN1C(=O)c2ccc([N+](=O)[O-])cc2C1=O)Cc1ccccc1 [Compound 1, 2-[4-(N-Benzyl-N-methyl)aminobutyl]-5-nitro-1H--isoindole-1,3(2H)-dione hydrochloride] | 9500 nM
2 | CN(CCCCCN1C(=O)c2ccc([N+](=O)[O-])cc2C1=O)Cc1ccccc1 [Compound 2-2] | 1400 nM
3 | CCN(CCCCN1C(=O)c2ccc([N+](=O)[O-])cc2C1=O)Cc1ccccc1 [Compound 2-3] | 250 nM
4 | O=C1c2ccc([N+](=O)[O-])cc2C(=O)N1CCCCN(CCO)Cc1ccccc1 [Compound 2-4] | 1500 nM
5 | O=C1c2ccc([N+](=O)[O-])cc2C(=O)N1CCCCN1CCc2ccccc2C1 [Compound 2-6] | 18000 nM
6 | CC(C)N(CCCCN1C(=O)c2ccc([N+](=O)[O-])cc2C1=O)Cc1ccccc1 [Compound 2-7] | 490 nM
7 | CN(CCCCCCN1C(=O)c2ccc([N+](=O)[O-])cc2C1=O)Cc1ccccc1 [Compound 2-9] | 480 nM
8 | CN(CCCCCCCN1C(=O)c2ccc([N+](=O)[O-])cc2C1=O)Cc1ccccc1 [Compound 2-10] | 1800 nM
9 | CCCCN(CCCCN1C(=O)c2ccc([N+](=O)[O-])cc2C1=O)Cc1ccccc1 [Compound 2-11] | 1900 nM
10 | CC(C)N(CCCCCN1C(=O)c2ccc([N+](=O)[O-])cc2C1=O)Cc1ccccc1 [Compound 2-12] | 830 nM
11 | CCN(CCCN1C(=O)c2ccc([N+](=O)[O-])cc2C1=O)Cc1ccccc1 [Compound 2-13] | 10000 nM
12 | CCN(CCCCCCN1C(=O)c2ccc([N+](=O)[O-])cc2C1=O)Cc1ccccc1 [Compound 2-14] | 660 nM
13 | CCN(CCCCCCCN1C(=O)c2ccc([N+](=O)[O-])cc2C1=O)Cc1ccccc1 [Compound 2-15] | 4600 nM
14 | CCCN(CCCCN1C(=O)c2ccc([N+](=O)[O-])cc2C1=O)Cc1ccccc1 [Compound 2-16] | 1900 nM
15 | CCN(CCCCCN1C(=O)c2ccc([N+](=O)[O-])cc2C1=O)Cc1ccc(C)cc1 [Compound 2-17] | 370 nM
16 | CCN(CCCCCN1C(=O)c2ccc([N+](=O)[O-])cc2C1=O)Cc1ccc(OC)cc1 [Compound 2-18] | 270 nM
17 | CCN(CCCCCN1C(=O)c2ccc([N+](=O)[O-])cc2C1=O)Cc1ccc(Cl)cc1 [Compound 2-19] | 240 nM
18 | CCN(CCCCCN1C(=O)c2ccc([N+](=O)[O-])cc2C1=O)Cc1cccc(Cl)c1 [Compound 2-20] | 240 nM
19 | CCN(CCCCCN1C(=O)c2ccc([N+](=O)[O-])cc2C1=O)Cc1ccccc1Cl [Compound 2-21] | 130 nM
20 | CCN(CCCCCN1C(=O)c2ccc([N+](=O)[O-])cc2C1=O)Cc1ccccc1F [Compound 2-22] | 270 nM
21 | CCN(CCCCCN1C(=O)c2ccc([N+](=O)[O-])cc2C1=O)Cc1ccccc1C [Compound 2-23] | 110 nM
22 | CCN(CCCCCN1C(=O)c2ccc([N+](=O)[O-])cc2C1=O)Cc1ccccc1[N+](=O)[O-] [Compound 2-24] | 490 nM
23 | CCN(CCCCCN1C(=O)c2ccc([N+](=O)[O-])cc2C1=O)Cc1ccccc1OC [Compound 2-25] | 28 nM
24 | CCN(CCCCCN1C(=O)c2ccc([N+](=O)[O-])cc2C1=O)Cc1cccc(OC)c1 [Compound 2-26] | 45 nM

Row | SMILES | IC50
25 | CCN(CCCCCN1C(=O)c2ccc([N+](=O)[O-])cc2C1=O)Cc1cccc(OC)c1OC [Compound 2-27] | 270 nM
26 | CCN(CCCCCN1C(=O)c2ccc([N+](=O)[O-])cc2C1=O)Cc1cccc2ccccc12 [Compound 2-28] | 110 nM
27 | CN(CCCCN1C(=O)c2ccc(N)cc2C1=O)Cc1ccccc1 [Compound 3, 5-Amino-2-[4-(N-benzyl-N-methyl)aminobutyl]-1H-isoindole-1,3(2H)-dione hydrochloride] | 34000 nM
28 | CN(CCCCN1C(=O)c2ccc(NC(=O)c3ccccc3)cc2C1=O)Cc1ccccc1 [Compound 4, 2-[4-(N-Benzyl-N-methyl)aminobutyl]-5-benzoylamino-1H-isoindole-1,3(2H)-dione] | 11000 nM
29 | CC(=O)Nc1ccc2c(c1)C(=O)N(CCCCN(C)Cc1ccccc1)C2=O [Compound 5-1] | 11000 nM
30 | Cc1ccc(S(=O)(=O)Nc2ccc3c(c2)C(=O)N(CCCCN(C)Cc2ccccc2)C3=O)cc1 [Compound 5-2] | 37000 nM
31 | CN(CCCCN1C(=O)c2ccc(NS(=O)(=O)Cc3ccccc3)cc2C1=O)Cc1ccccc1 [Compound 5-3] | 9200 nM
32 | O=C1c2ccc([N+](=O)[O-])cc2C(=O)N1CCCCNCc1cccc2ccccc12 [Compound 8-2] | 2900 nM
33 | CN(CCCCNC(=O)/C=C/c1ccc([N+](=O)[O-])cc1)Cc1ccccc1 [Compound 9, (E)-N-[4-(N-Methyl-N-benzyl)aminobutyl]-3-(4-nitrophenyl)-2-propenamide] | 14000 nM
34 | CCN(CCCCCN1C(=O)c2ccc(N)cc2C1=O)Cc1ccccc1 [Compound 10, 5-Amino-2-[5-(N-benzyl-N-ethyl)aminopentyl]-1H -isoindole-1,3(2H)-dione dihydrochloride] | 1200 nM
35 | CCN(CCCCCN1C(=O)c2ccc(NC(=O)c3ccccc3)cc2C1=O)Cc1ccccc1 [Compound 11-2] | 730 nM
36 | CCN(CCCCCN1C(=O)c2ccc(NC(=O)Cc3ccccc3)cc2C1=O)Cc1ccccc1 [Compound 11-3] | 1500 nM
37 | CCN(CCCCCN1C(=O)c2ccc(NS(=O)(=O)c3ccc(C)cc3)cc2C1=O)Cc1ccccc1 [Compound 11-4] | 2200 nM
38 | CCN(CCCCCN1C(=O)c2ccc(NS(=O)(=O)Cc3ccccc3)cc2C1=O)Cc1ccccc1 [Compound 11-5] | 240 nM
39 | CCN(CCCCCN1C(=O)c2ccc(NS(C)(=O)=O)cc2C1=O)Cc1ccccc1 [Compound 11-6] | 470 nM
40 | CCN(CCCCCN1C(=O)c2cccc([N+](=O)[O-])c2C1=O)Cc1ccccc1 [Compound 12-3] | 680 nM
41 | CCN(CCCCCN1C(=O)c2ccc(O)cc2C1=O)Cc1ccccc1 [Compound 12-4] | 2500 nM
42 | CCN(CCCCCN1C(=O)c2ccc(OC(C)=O)cc2C1=O)Cc1ccccc1 [Compound 12-5] | 2100 nM
43 | CCN(CCCCCN1C(=O)c2ccc(OC)cc2C1=O)Cc1ccccc1 [Compound 12-6] | 710 nM
44 | CCN(CCCCCN1C(=O)c2ccc(Cl)cc2C1=O)Cc1ccccc1 [Compound 12-7] | 1300 nM
45 | CCN(CCCCCN1C(=O)c2ccc(C(=O)O)cc2C1=O)Cc1ccccc1 [Compound 12-8, 2-[5-(N-benzyl-N-ethyl)aminopentyl]-1,3-dioxo-1H-isoindole-5-carboxylic acid hydrochloride] | 8800 nM
46 | CCN(CCCCCN1C(=O)c2ccc(C(=O)N(CC)CC)cc2C1=O)Cc1ccccc1 [Compound 12-9] | 980 nM
47 | CCN(CCCCCN1C(=O)c2ccc(C(=O)c3ccccc3)cc2C1=O)Cc1ccccc1 [Compound 12-10] | 1100 nM
48 | CCN(CCCCCN1C(=O)c2ccc(C)cc2C1=O)Cc1ccccc1 [Compound 12-11] | 1800 nM

Row | SMILES | IC50
49 | CCN(CCCCCN1C(=O)c2ccc(OS(C)(=O)=O)cc2C1=O)Cc1ccccc1 [Compound 12-12] | 380 nM
50 | CCN(CCCCCN1C(=O)c2ccc(C(=O)NC)cc2C1=O)Cc1ccccc1 [Compound 12-13] | 380 nM
51 | CCN(CCCCCN1C(=O)c2ccc(C(=O)OC)cc2C1=O)Cc1ccccc1 [Compound 13, Methyl 2-[5-(N-benzyl-N-ethyl)aminopentyl]-1,3(2H)-dioxo-1H-isoindole-5-carboxylate hydrochloride] | 580 nM
52 | CN(CCCCNC(=O)/C=C/c1cccc([N+](=O)[O-])c1)Cc1ccccc1 [Compound 14-1] | 13000 nM
53 | CN(CCCCNC(=O)/C=C/c1ccccc1[N+](=O)[O-])Cc1ccccc1 [Compound 14-2] | 18000 nM
54 | CCN(CCCNC(=O)/C=C/c1ccc([N+](=O)[O-])cc1)Cc1ccccc1 [Compound 14-9] | 11000 nM
55 | CCN(CCCCCCCNC(=O)/C=C/c1ccc([N+](=O)[O-])cc1)Cc1ccccc1 [Compound 14-10] | 15000 nM
56 | CCN(CCCCCNC(=O)/C=C/c1ccc(OC)c(OC)c1)Cc1ccccc1 [Compound 14-11] | 5400 nM
57 | CCN(CCCCCNC(=O)/C=C/c1ccccc1[N+](=O)[O-])Cc1ccccc1 [Compound 14-12] | 3900 nM
58 | CCN(CCCCCNC(=O)/C=C/c1cccc([N+](=O)[O-])c1)Cc1ccccc1 [Compound 14-13] | 3000 nM
59 | CCN(CCCCCNC(=O)/C=C/c1ccc(Cl)cc1)Cc1ccccc1 [Compound 14-14] | 16000 nM
60 | CCN(CCCCCNC(=O)/C=C/c1ccc(C)cc1)Cc1ccccc1 [Compound 14-15] | 16000 nM
61 | CCN(CCCCCNC(=O)/C=C/c1ccc(C#N)cc1)Cc1ccccc1 [Compound 14-16] | 5000 nM
62 | CCN(CCCCCNC(=O)/C=C/c1ccc(O)cc1)Cc1ccccc1 [Compound 14-17] | 13000 nM
63 | CCN(CCCCCNC(=O)/C=C/c1ccc(OC)cc1)Cc1ccccc1 [Compound 14-18] | 16000 nM
64 | CCN(CCCCCNC(=O)/C=C/c1cccc(OC)c1)Cc1ccccc1 [Compound 14-19] | 9300 nM
65 | CCN(CCCCCNC(=O)/C=C/c1ccc(SC)cc1)Cc1ccccc1 [Compound 14-20] | 21000 nM
66 | CCN(CCCCCNC(=O)/C=C/c1ccc([S+](C)[O-])cc1)Cc1ccccc1 (stereo not shown) [Compound 14-21] | 7500 nM
67 | CCN(CCCCCNC(=O)/C=C/c1ccc(S(C)(=O)=O)cc1)Cc1ccccc1 [Compound 14-22] | 3200 nM
68 | CCN(CCCCCNC(=O)/C=C/c1cc(OC)c(OC)c(OC)c1)Cc1ccccc1 [Compound 14-23] | 4100 nM
69 | CCN(CCCCCNC(=O)/C=C/c1ccc([N+](=O)[O-])c(O)c1)Cc1ccccc1 [Compound 14-24] | 170 nM
70 | CCN(CCCCCNC(=O)/C=C/c1ccc(Cl)c([N+](=O)[O-])c1)Cc1ccccc1 [Compound 14-25] | 1900 nM

From patent publication US5025033A, “Alkylene diamines” (Takeda Chemical Industries, Ltd., priority 1988, dated 1991)
